Test results from patent publication US12195427B2, “MASP-2 inhibitors and methods of use” (priority 2018, dated 2025).
Blank lines part the entries; values can stand above or below the compound they belong to.

Target: MASP-2 CCP2-SP (Homo sapiens (Human), UniProt O00187)
Experiment: MASP-2 co-crystallization, X-ray crystallography and structure analysis (H-bonds, van der Waals contacts);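 on Ligand-pharmacophore element distance, pharmacophore element C2: distance from averaged pharmacophore element to bound ligand; missing value means element absent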;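 on Ligand-pharmacophore element distance, pharmacophore element C3: distance from averaged pharmacophore element to bound ligand; missing value means element absent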;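 on Ligand-pharmacophore element distance, pharmacophore element C4: distance from averaged pharmacophore element to bound ligand; missing value means element absent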;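 on Ligand-pharmacophore element distance, pharmacophore element C5: distance from averaged pharmacophore element to bound ligand; missing value means element absent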
Parameters: van der Waals contact distance, MASP-2 HIS 483 atom CD2 / van der Waals contact distance, MASP-2 HIS 483 atom NE2 / van der Waals contact distance, SER 654 C to compound atom / van der Waals contact distance, SER 654 O to compound atom / van der Waals contact distance, TRP 655 C to compound atom / van der Waals contact distance, MASP-2 GLY 528 atom CA / van der Waals contact distance TRP 655 atom CZ3 / van der Waals contact distance TRP 655 atom N / van der Waals contact distance TRP 655 atom CE3 / van der Waals contact distance GLY 656 atom C / van der Waals contact distance GLY 656 atom CA / van der Waals contact distance GLY 656 atom O / van der Waals contact distance, MASP-2 TYR 607 atom CD1 / van der Waals contact distance, MASP-2 PRO 606 atom O / d(C3,CA1) / d(CA1,N1)2 / d(H4,O1) / d(H4,O2) / d(O1,O2) / d(CA1,O2) / d(CA6,O1) / d(CA6,O2) / d(CA1,C5) / d(O2,H3) / d(N2,C2) / d(CA5,N2) / d(N2,C4) / d(N2,C6) / d(N2,CA3) / d(N2,O3) / d(O4,H2): unit not given beside the values
Conditions: for van der Waals contact distance, MASP-2 PHE 529 atom CE1: Table A2-3; for Ligand-pharmacophore element distance, pharmacophore element C2 / Ligand-pharmacophore element distance, pharmacophore element C3 / Ligand-pharmacophore element distance, pharmacophore element C4 / Ligand-pharmacophore element distance, pharmacophore element C5 / Ligand-pharmacophore element distance, pharmacophore element C6 / Ligand-pharmacophore element distance, pharmacophore element C7 / Ligand-pharmacophore element distance, pharmacophore element CA1 / Ligand-pharmacophore element distance, pharmacophore element CA2 / Ligand-pharmacophore element distance, pharmacophore element CA3 / Ligand-pharmacophore element distance, pharmacophore element CA4 / Ligand-pharmacophore element distance, pharmacophore element CA5 / Ligand-pharmacophore element distance, pharmacophore element CA6: Table A4-1
Text: This example illustrates the preparation of recombinant MASP-2 protein, based on UniProt O00187, human mannan-binding lectin serine protease 2. Expression constructs for human MASP-2 CCP2-SP and CCP2-SP-6HIS were generated for recombinant expression in E. coli cells.
Typically, crystallization hits were obtained by screening against […] 96-well crystallization reagent kits (GRAS6, GRAS2, Hampton Research; MORPHEUS, Molecular Dimensions; Wizard 1&2 Cryo, Rigaku Reagents) and crystal growth was inspected by optical microscopy. Crystals were used directly or further optimized for X-ray diffraction. Crystals were captured with cryogenic loops and dipped into liquid nitrogen directly or cryoprotected with a 20% glycerol in crystallization formulation before flash-cooling in liquid nitrogen.
Thereafter crystals are transferred once or twice for soaking within the crystallization solution containing the MASP-2 inhibitor.
Crystals were diffracted with synchrotron X-rays of […] and X-ray diffraction datasets were collected at beamlines SSRL BL9-2, BL14-1, BL12-2 as well as ALS sector 5 using Dectris Pilatus and Eiger detectors. Structures were determined by molecular replacement using portions of the structure 1Q3X as search models and partially refined with Buster 2.10.2 or Refmac 5.8. […] When multiple ligand poses were observed, for instance arising from multiple molecules in the asymmetric unit or refined dual poses within the same molecule, only one pose was selected and analyzed.
LigPlot+ calls these ‘nonbonded contacts’ or ‘hydrophobic contacts’. Despite the name, there are atom pairings that include possible H-bonds. Thus, in some instances, the Table A2 also contains H-bond interactions.

[1] = Table A2-7: SER 628 (CB, O, OG)
[2] = Table A5-1 pharmacophore: distance between elements, S2/S1 region
[3] = Table A5-2 pharmacophore distance, S3/S4 region
[4] = Table A7-1, between pharmacophore elements of the bound compound
[5] = Table A7-2, between pharmacophore elements of the bound compound
[6] = Table A8-6, nearest protein atom in cell to the left

MASP-2 CCP2-SP, sequence (O00187 445-686): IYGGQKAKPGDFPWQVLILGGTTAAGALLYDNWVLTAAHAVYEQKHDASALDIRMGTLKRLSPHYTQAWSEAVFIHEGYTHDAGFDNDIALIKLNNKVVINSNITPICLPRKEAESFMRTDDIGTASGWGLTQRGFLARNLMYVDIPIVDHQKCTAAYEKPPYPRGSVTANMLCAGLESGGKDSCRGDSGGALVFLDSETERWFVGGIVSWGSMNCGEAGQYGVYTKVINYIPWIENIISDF
MASP-2 CCP2-SP, sequence (O00187 364-432 partner): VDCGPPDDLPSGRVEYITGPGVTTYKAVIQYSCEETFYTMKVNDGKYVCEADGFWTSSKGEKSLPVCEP

SMILES: Cc1nc(N)ccc1CNC(=O)C(C)NC(=O)[C@H]1C[C@H](c2cccc(-c3ccccc3)c2)CN1 (stereo in doubt) [compound 1360, (2R,4R)-4-([1,1′-Biphenyl]-3-yl)-N—((R)-1-(((6-amino-2-methylpyridin-3-yl)methyl)amino)-1-oxopropan-2-yl)pyrrolidine-2-carboxamide]
H-bond distance to MASP-2 ASP 627 atom OD2 (Table A1 (H-Bonds), ASP 627 OD2): 3.15 | H-bond distance to MASP-2 GLY 656 atom N (Table A1 (H-Bonds), GLY 656 N): 3.21 | H-bond distance to MASP-2 GLY 656 atom O (Table A1 (H-Bonds), GLY 656 O): 2.9 | H-bond distance to MASP-2 SER 628 atom O (Table A1 (H-Bonds), SER 628 O): 3.18 | H-bond distance to MASP-2 SER 654 atom O (Table A1 (H-Bonds), SER 654 O): 3.04 | H-bond distance to MASP-2 SER 657 atom O (Table A1 (H-Bonds), SER 657 O): 2.96 | van der Waals contact distance, MASP-2 HIS 483 atom CD2 (Table A2-1): 3.76 | van der Waals contact distance, MASP-2 HIS 483 atom NE2 (Table A2-1): 3.69 | van der Waals contact distance, MASP-2 PHE 529 atom CE1: 3.78 | van der Waals contact distance, MASP-2 amino acid atom to compound atom [1]: 3.61 | van der Waals contact distance, TRP 655 CA to compound atom (Table A2-12): 3.44 | Ligand-pharmacophore element distance, pharmacophore element C2: 0 | Ligand-pharmacophore element distance, pharmacophore element C3: 0.11 | Ligand-pharmacophore element distance, pharmacophore element C4: 0 | Ligand-pharmacophore element distance, pharmacophore element C5: 0 | Ligand-pharmacophore element distance, pharmacophore element C6: 0 | Ligand-pharmacophore element distance, pharmacophore element C7: 0 | Ligand-pharmacophore element distance, pharmacophore element CA1: 0.57 | Ligand-pharmacophore element distance, pharmacophore element CA2: 2.35 | Ligand-pharmacophore element distance, pharmacophore element CA3: 0 | Ligand-pharmacophore element distance, pharmacophore element CA4: 0 | Ligand-pharmacophore element distance, pharmacophore element CA5: 1.11 | Ligand-pharmacophore element distance, pharmacophore element CA6: 0 | d(C3,CA1) [2]: 2.85 | d(CA1,N1)2 [2]: 1.36 | d(CA1,O1) [2]: 4.35 | d(CA1,O2) [2]: 3.85 | d(H4,O1) [2]: 4.38 | d(H4,O2) [2]: 3.80 | d(O1,O2) [2]: 3.32 | d(CA5,N2) [3]: 5.07 | d(N2,CA2) [3]: 8.32 | d(O2,H3) [3]: 4.32 | d(O2,N2) [3]: 2.66 | a(C3, CA1, O1) (Table A6-1 pharmacophore angle): 150.18 | a(CA1, O1, O2) (Table A6-1 pharmacophore angle): 105.67 | a(O1, O2, H4) (Table A6-1 pharmacophore angle): 132.69 | a(N1, CA1, O1) b) (Table A6-1 pharmacophore angle, Methyl-amino-pyridine compounds): 174.23 | a(O1, O2, H3) (Table A6-2 pharmacophore angle): 147.57 | a(O1, O2, N2) (Table A6-2 pharmacophore angle): 138.89 | a(O2, N2, CA2) (Table A6-2 pharmacophore angle): 162.09 | Pharmacophore torsion angle a(C3, CA1, O1, H4) [4]: 24.01 | Pharmacophore torsion angle a(H4, O1, O2, H3) [4]: 51.00 | Pharmacophore torsion angle a(H4, O1, O2, N2) [4]: 138.89 | Pharmacophore torsion angle a(N1, CA1, O1, H4) [4]: 3.34 | Pharmacophore torsion angle a(O1, H4, O2, CA1) [4]: −83.81 | Pharmacophore torsion angle a(O1, O2, N2, CA2) [5]: 130.24 | Pharmacophore torsion angle a(O1, O2, N2, CA5) [5]: 129.35

H-bond distance to MASP-2 ALA 469 atom N (Table A1 (H-Bonds), ALA 469 N): 3 | H-bond distance to MASP-2 HIS 483 atom NE2 (Table A1 (H-Bonds), HIS 483 NE2): 2.89 | van der Waals contact distance, MASP-2 ALA 468 atom C (Table A2-1): 3.69 | van der Waals contact distance, MASP-2 ALA 468 atom CA (Table A2-1): 3.52 | van der Waals contact distance, MASP-2 ALA 468 atom CB (Table A2-1): 3.52 | van der Waals contact distance, MASP-2 ALA 469 atom CA (Table A2-1): 3.89 | van der Waals contact distance, MASP-2 HIS 483 atom CD2 (Table A2-1): 3.72 | van der Waals contact distance, MASP-2 PHE 529 atom CE1: 3.21 | van der Waals contact distance, MASP-2 amino acid atom to compound atom [1]: 3.65 | van der Waals contact distance, VAL 653 CB to compound atom (Table A2-11): 3.77 | van der Waals contact distance, TRP 655 C to compound atom (Table A2-12): 3.72 | van der Waals contact distance, TRP 655 CA to compound atom (Table A2-12): 3.69 | van der Waals contact distance, MASP-2 amino acid atom to compound atom (Table A2 section before Table A2-8): 3.89 | Ligand-pharmacophore element distance, pharmacophore element C2: 0 | Ligand-pharmacophore element distance, pharmacophore element C3: 0 | Ligand-pharmacophore element distance, pharmacophore element C4: 0 | Ligand-pharmacophore element distance, pharmacophore element C5: 0 | Ligand-pharmacophore element distance, pharmacophore element C6: 0 | Ligand-pharmacophore element distance, pharmacophore element C7: 0 | Ligand-pharmacophore element distance, pharmacophore element CA1: 1.47 | Ligand-pharmacophore element distance, pharmacophore element CA2: 0 | Ligand-pharmacophore element distance, pharmacophore element CA3: 0 | Ligand-pharmacophore element distance, pharmacophore element CA4: 0 | Ligand-pharmacophore element distance, pharmacophore element CA5: 0 | Ligand-pharmacophore element distance, pharmacophore element CA6: 1.68 | Ligand-pharmacophore element distance, pharmacophore element H1 (Table A4-2, element H1): 0 | Ligand-pharmacophore element distance, pharmacophore element H2 (Table A4-2, element H2): 4.66 | Ligand-pharmacophore element distance, pharmacophore element H3 (Table A4-2, element H3): 0 | Ligand-pharmacophore element distance, pharmacophore element H4 (Table A4-2, element H4): 1.82 | Ligand-pharmacophore element distance, pharmacophore element N1 (Table A4-2, element N1): 0 | Ligand-pharmacophore element distance, pharmacophore element N2 (Table A4-2, element N2): 0 | Ligand-pharmacophore element distance, pharmacophore element O1 (Table A4-2, element O1): 3.89 | Ligand-pharmacophore element distance, pharmacophore element O2 (Table A4-2, element O2): 0.46 | Ligand-pharmacophore element distance, pharmacophore element O3 (Table A4-2, element O3): 0 | Ligand-pharmacophore element distance, pharmacophore element O4 (Table A4-2, element O4): 0 | d(CA1,O1) [2]: 3.49 | d(CA1,O2) [2]: 3.51 | d(CA6,O1) [2]: 7.02 | d(CA6,O2) [2]: 3.51 | d(H4,O1) [2]: 3.02 | d(H4,O2) [2]: 3.13 | d(O1,O2) [2]: 5.28 | a(CA1, O1, O2) (Table A6-1 pharmacophore angle): 139.05 | a(O1, CA6, O2) (Table A6-1 pharmacophore angle): 75.74 | a(O1, O2, H4) (Table A6-1 pharmacophore angle): 61.95 | Pharmacophore torsion angle a(CA6, O1, H4, O2) [4]: 43.29 | Pharmacophore torsion angle a(O1, H4, O2, CA1) [4]: 38.29 | Pharmacophore protein distance to MET_658 (first MET_658 column) (Table A8-6, 6th residue column, nearest protein atom in cell to the left): 2.13 | Pharmacophore protein distance to MET_658 (second MET_658 column) (Table A8-6, 9th residue column, nearest protein atom in cell to the left): 3.80 | Pharmacophore protein distance to GLY_528 [6]: 3.51 | Pharmacophore protein distance to PHE_529 [6]: 2.77 | Pharmacophore protein distance to PRO_608 [6]: 4.32 | Pharmacophore protein distance to SER_611 [6]: 2.64 | Pharmacophore protein distance to TRP_655 (Table A8-6, pharmacophore elements C6, CA3, O3, H1, nearest protein atom in cell to the left): 3.76
SMILES: O=c1oc(-c2ccccc2[N+](=O)[O-])nc2ccccc12 [compound 14]
